Our source for the IC50 values is patent publication US7579368B2, “Cis-imidazolines” (Hoffman-La Roche Inc., priority 2005, dated 2009).

Structures can show the parent of a compound that is named as a salt.

interaction between p53 and MDM2 proteins (recombinant GST-tagged MDM2 and p53 peptide), sequence (Q00987 whole entry): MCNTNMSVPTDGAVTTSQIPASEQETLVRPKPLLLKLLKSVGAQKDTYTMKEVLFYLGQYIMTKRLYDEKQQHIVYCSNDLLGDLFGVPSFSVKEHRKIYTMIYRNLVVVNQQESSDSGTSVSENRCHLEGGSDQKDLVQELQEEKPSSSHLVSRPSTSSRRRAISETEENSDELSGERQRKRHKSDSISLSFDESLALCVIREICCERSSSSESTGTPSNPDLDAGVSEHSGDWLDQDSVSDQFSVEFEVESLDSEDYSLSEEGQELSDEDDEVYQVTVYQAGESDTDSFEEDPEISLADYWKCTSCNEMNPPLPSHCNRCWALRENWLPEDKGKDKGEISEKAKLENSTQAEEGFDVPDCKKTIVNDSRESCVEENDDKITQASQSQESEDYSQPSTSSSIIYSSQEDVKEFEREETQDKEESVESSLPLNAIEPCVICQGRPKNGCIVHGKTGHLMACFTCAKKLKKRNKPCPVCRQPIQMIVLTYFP

The target of this assay is interaction between p53 and MDM2 proteins (recombinant GST-tagged MDM2 and p53 peptide) (Homo sapiens, UniProt Q00987). Kind of assay: HTRF assay of inhibition of the p53-MDM2 interaction (GST-MDM2 / biotinylated p53 peptide). The settings on record: 90 nM biotinylated p53 peptide, 160 ng/ml GST-MDM2, 37° C. 1 h. In kind it is binding. How it is done:
The ability of the compounds to inhibit the interaction between p53 and MDM2 proteins was measured by an HTRF (homogeneous time-resolved fluorescence) assay in which recombinant GST-tagged MDM2 binds to a peptide that resembles the MDM2-interacting region of p53 (Lane et al.). Binding of GST-MDM2 protein and p53-peptide (biotinylated on its N-terminal end) is registered by the FRET (fluorescence resonance energy transfer) between Europium (Eu)-labeled anti-GST antibody and streptavidin-conjugated Allophycocyanin (APC).
Test is performed in black flat-bottom 384-well plates (Costar) in a total volume of 40 uL containing: 90 nM biotinylated peptide, 160 ng/ml GST-MDM2, 20 nM streptavidin-APC (PerkinElmerWallac), 2 nM Eu-labeled anti-GST-antibody (PerkinElmerWallac), 0.2% bovine serum albumin (BSA), 1 mM dithiothreitol (DTT) and 20 mM […] (TBS) buffer as follows: Add 10 uL of GST-MDM2 (640 ng/ml working solution) in reaction buffer to each well. Add 10 uL diluted compounds (1:5 dilution in reaction buffer) to each well, mix by shaking. Add 20 uL biotinylated p53 peptide (180 nM working solution) in reaction buffer to each well and mix on shaker. Incubate at 37° C. for 1 h. Add 20 uL streptavidin-APC and Eu-anti-GST antibody mixture (6 nM Eu-anti-GST and 60 nM streptavidin-APC working solution) in TBS buffer with 0.2% BSA, shake at room temperature for 30 minutes and read using a TRF-capable plate reader at 665 and 615 nm (Victor 5, Perkin ElmerWallac). If not specified, the reagents were purchased from Sigma Chemical Co.
In the case of `CCOc1cc(C#CC(C)(C)C)ccc1C1=N[C@@H](c2ccc(Cl)cc2)[C@@H](c2ccc(Cl)cc2)N1C(=O)N1CCN(CC(=O)N2CCOCC2)CC1` [Example 405, 2-(4-{(4S,5R)-4,5-Bis-(4-chloro-phenyl)-2-[4-(3,3-dimethyl-but-1-ynyl)-2-ethoxy-phenyl]-4,5-dihydro-imidazole-1-carbonyl}-piperazin-1-yl)-1-morpholin-4-yl-ethanone hydrochloride], the IC50 came to 544 nM.

As for `CCOc1cc(Cl)c(S(N)(=O)=O)cc1C1=N[C@@H](c2ccc(Cl)cc2)[C@@H](c2ccc(Cl)cc2)N1C(=O)N1CCN(CC(=O)N2CCOCC2)CC1` [Example 34, 5-{(4S,5R)-4,5-Bis-(4-chloro-phenyl)-1-[4-(2-morpholin-4-yl-2-oxo-ethyl)-piperazine-1-carbonyl]-4,5-dihydro-1H-imidazol-2-yl}-2-chloro-4-ethoxy-benzenesulfonamide], the IC50 was 9 nM. As to `CCOc1cc(Cl)c(S(=O)(=O)N2CCCCC2)cc1C1=N[C@@H](c2ccc(Cl)cc2)[C@@H](c2ccc(Cl)cc2)N1C(=O)N1CCN(CC(=O)N2CCOCC2)CC1` [Example 175, 2-{4-[(4S,5R)-2-[4-Chloro-2-ethoxy-5-(piperidine-1-sulfonyl)-phenyl]-4,5-bis-(4-chloro-phenyl)-4,5-dihydro-imidazole-1-carbonyl]-piperazin-1-yl}-1-morpholin-4-yl-ethanone hydrochloride], the IC50 is 5 nM. As for `CCOc1cc(Cl)c(C#N)cc1C1=N[C@@H](c2ccc(Cl)cc2)[C@@H](c2ccc(Cl)cc2)N1C(=O)N1CCNC(=O)C1` [Example 234, 5-[(4S,5R)-4,5-Bis-(4-chloro-phenyl)-1-(3-oxo-piperazine-1-carbonyl)-4,5-dihydro-1H-imidazol-2-yl]-2-chloro-4-ethoxy-benzonitrile], the IC50 is 150 nM. For `CCOc1cc(N(C(=O)N2CCNC(=O)C2)S(C)(=O)=O)ccc1C1=N[C@@H](c2ccc(Cl)cc2)[C@@H](c2ccc(Cl)cc2)N1C(=O)N1CCNC(=O)C1` [Example 275, N-{4-[(4S,5R)-4,5-Bis-(4-chloro-phenyl)-1-(3-oxo-piperazine-1-carbonyl)-4,5-dihydro-1H-imidazol-2-yl]-3-ethoxy-phenyl}-N-(3-oxo-piperazine-1-carbonyl)-methanesulfonamide] the value was 310 nM. For `CCOc1cc(C#N)ccc1C1=N[C@@H](c2ccc(Cl)cc2)[C@@H](c2ccc(Cl)cc2)N1C(=O)N1CCN(CCO)CC1` [Example 63, 4-{(4S,5R)-4,5-Bis-(4-chloro-phenyl)-1-[4-(2-hydroxy-ethyl)-piperazine-1-carbonyl]-4,5-dihydro-1H-imidazol-2-yl}-3-ethoxy-benzonitrile] the value was 9 nM; for `CCOc1cc(Cl)c(S(=O)(=O)N2CCCC2)cc1C1=N[C@@H](c2ccc(Cl)cc2)[C@@H](c2ccc(Cl)cc2)N1C(=O)N1CCN(CCS(C)(=O)=O)CC1` [Example 174, [(4S,5R)-2-[4-Chloro-2-ethoxy-5-(pyrrolidine-1-sulfonyl)-phenyl]-4,5-bis-(4-chloro-phenyl)-4,5-dihydro-imidazol-1-yl]-[4-(2-methanesulfonyl-ethyl)-piperazin-1-yl]-methanone hydrochloride], 5 nM; for `CCOc1cc(NC(=O)C(C)(C)C)ccc1C1=N[C@@H](c2ccc(Cl)cc2)[C@@H](c2ccc(Cl)cc2)N1C(=O)N1CCNC(=O)C1` [Example 277, N-{4-[(4S,5R)-4,5-Bis-(4-chloro-phenyl)-1-(3-oxo-piperazine-1-carbonyl)-4,5-dihydro-1H-imidazol-2-yl]-3-ethoxy-phenyl}-2,2-dimethyl-propionamide], 160 nM. For `CCOc1ccc(S(=O)(=O)NC(C)COC)cc1C1=NC(c2ccc(Cl)cc2)C(c2ccc(Cl)cc2)N1C(=O)N1CCN(CC(=O)NC)CC1` (stereo not shown) [Example 130, 2-(4-{4,5-Bis-(4-chloro-phenyl)-2-[2-ethoxy-5-(2-methoxy-1-methyl-ethylsulfamoyl)-phenyl]-4,5-dihydro-imidazole-1-carbonyl}-piperazin-1-yl)-N-methyl-acetamide] the value was 57 nM. With `CCOc1ccc(S(=O)(=O)N(CCOC)CCOC)cc1C1=NC(c2ccc(Cl)cc2)C(c2ccc(Cl)cc2)N1C(=O)N1CCNC(=O)C1` (stereo not shown) [Example 105, 3-[4,5-Bis-(4-chloro-phenyl)-1-(3-oxo-piperazine-1-carbonyl)-4,5-dihydro-1H-imidazol-2-yl]-4-ethoxy-N,N-bis-(2-methoxy-ethyl)-benzenesulfonamide], the IC50 worked out at 57 nM.
